ChEMBL document CHEMBL4190181 (Medchemcomm, 2016)

Assays:
[1] = species on record: Rattus norvegicus; assay: Positive allosteric modulation of AMPAR in Sprague-Dawley rat primary culture of cerebellar neurons assessed as potentiation of kainate-induced current at 10 uM by whole-cell patch clamp electrophysiological method relative to control
[2] = Drug level in rat liver microsomes treated with (+/-)-7-Chloro-5-(3-furanyl)-3-methyl-3,4-dihydro-2H-1,2,4-benzothiadiazine 1,1-dioxide assessed as CYP450-mediated metabolite formation at 10 uM after 60 mins by LC-MS/MS analysis; assay type: ADME; conditions: 1 h
[3] = Half life of the compound in pH 7.4 buffer assessed as compound racemization; assay type: physicochemical

| Activity [1] [%] | Drug metabolism [2] | half-life [3] [h] | Structure (SMILES) |
| --- | --- | --- | --- |
| 488 | Metabolite_Detected |  | C[C@H]1Nc2c(-c3ccoc3)cc(Cl)cc2S(=O)(=O)N1 |
| 8 |  |  | CC1Nc2ccc(Cl)cc2S(=O)(=O)N1 (configuration not stated) |
| 1600 |  | 1 | CC1Nc2c(-c3ccoc3)cc(Cl)cc2S(=O)(=O)N1 (racemic) |
| 2590 | Metabolite_Detected |  | C[C@@H]1Nc2c(-c3ccoc3)cc(Cl)cc2S(=O)(=O)N1 |
